What was measured:
potato late blight = assay: microbe, parasite or virus in culture; format: cell-based
[1] = test system: Colletotrichum orbiculare; assay: Fungicidal (bactericidal) activity in vitro, PDA colony diameter; format: cell-based; settings: 50 mg/kg
cotton bollworms = assay: whole plant or invertebrate; settings: for Cotton bollworm Mortality (%): concentration 600 mg/kg
Protocol: Experimental method of cotton bollworms: feed and drug mixing method: measure 3 mL of prepared solution and add it to about 27 g of newly prepared feed, thereby obtaining needed concentration through dilution by 10 times.

Phytophthora capsici = assay: Fungicidal (bactericidal) activity in vitro, PDA colony diameter; format: cell-based; settings: 50 mg/kg
Bipolaria maydis = assay: organism not typed; format: cell-based; settings: for Bactericidal activity (%) Bipolaria maydis: 50 mg/kg
[2] = test system: tobacco mosaic virus (TMV); assay: Anti-TMV in vivo inactivation; set-up: species or system tobacco mosaic virus (host Nicotiana tabacum L.cv.Xanthi NN)
Rhizoctonia solani = assay: Fungicidal (bactericidal) activity in vitro, PDA colony diameter; format: cell-based; settings: 50 mg/kg
Botrytis cinerea = assay: as above; format: cell-based; settings: 50 mg/kg
[3] = test system: tobacco mosaic virus (TMV); assay: Anti-TMV in vitro effect (half-leaf soaking); format: cell-based, tobacco mosaic virus (host Nicotiana tabacum L.cv.Xanthi NN)
cucumber fusarium wilt = assay: Fungicidal (bactericidal) activity in vitro, PDA colony diameter; format: cell-based; settings: 50 mg/kg
corn borers [4] = assay: whole plant or invertebrate; settings: read-out: Corn borer Mortality (%)
mosquito larvae = assay: whole plant or invertebrate; settings: 24 h
Outline: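 Compound dissolved in acetone (or other solvent) to a 1000 ppm stock and diluted in water to 5 ppm. Ten Culex pipiens pallens larvae at the start of the fourth instar, laboratory-reared, added per beaker; solvent-only aqueous control.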

armyworms = format: in vivo; settings: concentration 600 mg/kg
Cercospora arachidicola = assay: Fungicidal (bactericidal) activity in vitro, PDA colony diameter; format: cell-based; settings: 50 mg/kg
Sclerotinia scleotiorum = assay: as above; format: cell-based; settings: 50 mg/kg
[5] = test system: tobacco mosaic virus (TMV); assay: Anti-TMV in vivo protective effect; set-up: species or system tobacco mosaic virus (host Nicotiana tabacum L.cv.Xanthi NN)
[6] = test system: tobacco mosaic virus (TMV); assay: Anti-TMV in vivo therapeutic effect; set-up: species or system tobacco mosaic virus (host Nicotiana tabacum L.cv.Xanthi NN)
Alternaria solani = assay: Fungicidal (bactericidal) activity in vitro, PDA colony diameter; format: cell-based; settings: 50 mg/kg
Fusarium graminearumt = assay: microbe, parasite or virus in culture; format: cell-based; settings: for Bactericidal activity (%) Fusarium graminearumt: 50 mg/kg
Macrophoma kawatsukai = assay: Fungicidal (bactericidal) activity in vitro, PDA colony diameter; format: cell-based; settings: 50 mg/kg
Fusarium fujikuroi = assay: as above; format: cell-based; settings: 50 mg/kg
Rhizoctonia cereali = assay: as above; format: cell-based; settings: 50 mg/kg
[7] = test system: tobacco mosaic virus (TMV); assay: Anti-TMV activity, overall statements on Table 1; format: in vivo, tobacco mosaic virus (host Nicotiana tabacum L.cv.Xanthi NN); settings: 100 μg/mL versus ningnanmycin at 100 μg/mL
corn borers [8] = settings: concentration 600 mg/kg

C[C@@H]1N[C@H](C(=O)NCN(C)C)Cc2c1[nH]c1ccccc21 [Ib-19, (1S, 3S)—N-((dimethylamino)methyl)-1-methyl-2,3,4,9-tetrahydro-pyridino [3,4-b] indol-3-formamide]
inhibition of growth at 50 mg/kg (potato late blight; Phytophthora infestans, 96 h, read-out: Bactericidal activity (%) potato late blight): 20%
inhibition of growth at 50 mg/kg ([1]; Colletotrichum orbiculare, 96 h): 25.9%
mortality at 600 mg/kg (cotton bollworms; Helicoverpa armigera, in Gossypium hirsutum, read-out: Cotton bollworm Mortality (%)): 60%
inhibition of growth at 50 mg/kg (Phytophthora capsici; Phytophthora capsici, 96 h): 7.9%
inhibition at 50 mg/kg (Bipolaria maydis; read-out: Bactericidal activity (%) Bipolaria maydis): 24%
inhibition at 100 µg/mL ([2]; Tobacco mosaic virus, treatment dose 100 μg/mL, read-out: Relative inhibition rate (%) In vivo inactivation): 0%
inhibition at 500 µg/mL ([2]; Tobacco mosaic virus, treatment dose 500 μg/mL, read-out: Relative inhibition rate (%) In vivo inactivation): 18.5%
inhibition of growth at 50 mg/kg (Rhizoctonia solani; Rhizoctonia solani, 96 h): 26.3%
inhibition of growth at 50 mg/kg (Botrytis cinerea; Botrytis cinerea, 96 h): 27.3%
inhibition at 100 µg/mL ([3]; Tobacco mosaic virus, treatment dose 100 μg/mL, read-out: Relative inhibition rate (%) In vitro activity): 0%
inhibition at 500 µg/mL ([3]; Tobacco mosaic virus, treatment dose 500 μg/mL, read-out: Relative inhibition rate (%) In vitro activity): 26.6%
inhibition of growth at 50 mg/kg (cucumber fusarium wilt; Fusarium, 96 h): 19.2%
mortality at 600 mg/kg (corn borers [4]): 10%
mortality at 10 mg/kg (mosquito larvae; Culex pipiens, read-out: Mosquito larvae Mortality (%)): 20%
Armyworm Mortality (%) (armyworms): 5%
inhibition of growth at 50 mg/kg (Cercospora arachidicola; Mycosphaerella arachidis, 96 h): 41.2%
inhibition of growth at 50 mg/kg (Sclerotinia scleotiorum; Sclerotinia, 96 h): 35.3%
inhibition at 100 µg/mL ([5]; Tobacco mosaic virus, treatment dose 100 μg/mL, read-out: Relative inhibition rate (%) In vivo protection): 0%
inhibition at 500 µg/mL ([5]; Tobacco mosaic virus, treatment dose 500 μg/mL, read-out: Relative inhibition rate (%) In vivo protection): 24.7%
inhibition at 100 µg/mL ([6]; Tobacco mosaic virus, treatment dose 100 μg/mL, read-out: Relative inhibition rate (%) In vivo therapy): 0%
inhibition at 500 µg/mL ([6]; Tobacco mosaic virus, treatment dose 500 μg/mL, read-out: Relative inhibition rate (%) In vivo therapy): 20.9%
inhibition of growth at 50 mg/kg (Alternaria solani; Alternaria solani, 96 h): 25%
inhibition of growth at 50 mg/kg (Fusarium graminearumt; Fusarium, 96 h, read-out: Bactericidal activity (%) Fusarium graminearumt): 27.6%
inhibition at 50 mg/kg (Macrophoma kawatsukai): 55.6%
inhibition of growth at 50 mg/kg (Fusarium fujikuroi; Fusarium fujikuroi, 96 h): 21.4%
inhibition of growth at 50 mg/kg (Rhizoctonia cereali; Rhizoctonia, 96 h): 47.1%

C[C@@H]1N[C@H](C(=O)NN=Cc2ccc3c(c2)OCO3)Cc2c1[nH]c1ccccc21 [Ic-12]
Bactericidal activity (%) potato late blight (potato late blight): 39.1%
Bactericidal activity (%) Colletotrichum orbiculare [1]: 48.0%
Cotton bollworm Mortality (%) (cotton bollworms): 30%
Bactericidal activity (%) Phytophthora capsici (Phytophthora capsici): 81.8%
Bactericidal activity (%) Bipolaria maydis (Bipolaria maydis): 56.0%
Relative inhibition rate (%) In vivo inactivation ([2]; treatment dose 100 μg/mL): 33.6%
Relative inhibition rate (%) In vivo inactivation ([2]; treatment dose 500 μg/mL): 74.5%
Bactericidal activity (%) Rhizoctonia solani (Rhizoctonia solani): 50.0%
Bactericidal activity (%) Botrytis cinerea (Botrytis cinerea): 88.9%
Relative inhibition rate (%) In vitro activity ([3]; treatment dose 100 μg/mL): 29.1%
Relative inhibition rate (%) In vitro activity ([3]; treatment dose 500 μg/mL): 72.6%
Bactericidal activity (%) Cucumber fusarium wilt (cucumber fusarium wilt): 31.8%
Mosquito larvae Mortality (%) (mosquito larvae; concentration 10 mg/kg): 15%
Armyworm Mortality (%) (armyworms): 15%
Bactericidal activity (%) Cercospora arachidicola (Cercospora arachidicola): 63.6%
anti-TMV activity compared with ningnanmycin [7]: equivalent to the activity of commercial variety ningnanmycin
Bactericidal activity (%) Sclerotinia scleotiorum (Sclerotinia scleotiorum): 44.2%
Corn borer Mortality (%) (corn borers [8]): 15%
Relative inhibition rate (%) In vivo protection ([5]; treatment dose 100 μg/mL): 35.8%
Relative inhibition rate (%) In vivo protection ([5]; treatment dose 500 μg/mL): 68.1%
Relative inhibition rate (%) In vivo therapy ([6]; treatment dose 100 μg/mL): 30.2%
Relative inhibition rate (%) In vivo therapy ([6]; treatment dose 500 μg/mL): 69%
Bactericidal activity (%) Alternaria solani (Alternaria solani): 52.4%
Bactericidal activity (%) Fusarium graminearumt (Fusarium graminearumt): 53.8%
Bactericidal activity (%) Macrophoma kawatsukai (Macrophoma kawatsukai): 63.6%
Bactericidal activity (%) Fusarium fujikuroi (Fusarium fujikuroi): 58.8%
Bactericidal activity (%) Rhizoctonia cereali (Rhizoctonia cereali): 86.5%

C[C@@H]1N[C@H](C(=O)NN=Cc2cccs2)Cc2c1[nH]c1ccccc21 [Ic-20, (1S, 3S)—N′-(thiophene-2-methylene)-1-methyl-2,3,4,9-tetrahydropyridino [3,4-b] indol-3-formylhydrazine]
Bactericidal activity (%) potato late blight (potato late blight): 36.0%
Bactericidal activity (%) Colletotrichum orbiculare [1]: 44.4%
Cotton bollworm Mortality (%) (cotton bollworms): 20%
Bactericidal activity (%) Phytophthora capsici (Phytophthora capsici): 68.4%
Bactericidal activity (%) Bipolaria maydis (Bipolaria maydis): 44.0%
Relative inhibition rate (%) In vivo inactivation ([2]; treatment dose 100 μg/mL): 29.6%
Relative inhibition rate (%) In vivo inactivation ([2]; treatment dose 500 μg/mL): 59.1%
Bactericidal activity (%) Rhizoctonia solani (Rhizoctonia solani): 46.1%
Bactericidal activity (%) Botrytis cinerea (Botrytis cinerea): 72.7%
Relative inhibition rate (%) In vitro activity ([3]; treatment dose 100 μg/mL): 23%
Relative inhibition rate (%) In vitro activity ([3]; treatment dose 500 μg/mL): 58.5%
Bactericidal activity (%) Cucumber fusarium wilt (cucumber fusarium wilt): 26.9%
Mosquito larvae Mortality (%) (mosquito larvae; concentration 10 mg/kg): 75%
Armyworm Mortality (%) (armyworms): 35%
Bactericidal activity (%) Cercospora arachidicola (Cercospora arachidicola): 47.1%
anti-TMV activity compared with ningnanmycin [7]: equivalent to the activity of commercial variety ningnanmycin
Bactericidal activity (%) Sclerotinia scleotiorum (Sclerotinia scleotiorum): 88.2%
Corn borer Mortality (%) (corn borers [8]): 30%
Relative inhibition rate (%) In vivo protection ([5]; treatment dose 100 μg/mL): 31.8%
Relative inhibition rate (%) In vivo protection ([5]; treatment dose 500 μg/mL): 61.3%
Relative inhibition rate (%) In vivo therapy ([6]; treatment dose 100 μg/mL): 25.1%
Relative inhibition rate (%) In vivo therapy ([6]; treatment dose 500 μg/mL): 52.3%
Bactericidal activity (%) Alternaria solani (Alternaria solani): 45.0%
Bactericidal activity (%) Fusarium graminearumt (Fusarium graminearumt): 62.1%
Bactericidal activity (%) Macrophoma kawatsukai (Macrophoma kawatsukai): 55.6%
Bactericidal activity (%) Fusarium fujikuroi (Fusarium fujikuroi): 28.6%
Bactericidal activity (%) Rhizoctonia cereali (Rhizoctonia cereali): 72.5%

CC(=NNC(=O)[C@@H]1Cc2c([nH]c3ccccc23)[C@H](C)N1)C(C)(C)C [Ic-28, (1S, 3S)—N′-(3,3-dimethyl-2-butylidene)-1-methyl-2,3,4,9-tetrahydropyridino [3,4-b] indol-3-formylhydrazine]
Bactericidal activity (%) potato late blight (potato late blight): 30.4%
Bactericidal activity (%) Colletotrichum orbiculare [1]: 32.0%
Cotton bollworm Mortality (%) (cotton bollworms): 45%
Bactericidal activity (%) Phytophthora capsici (Phytophthora capsici): 18.2%
Bactericidal activity (%) Bipolaria maydis (Bipolaria maydis): 28.0%
Relative inhibition rate (%) In vivo inactivation ([2]; treatment dose 100 μg/mL): 21.3%
Relative inhibition rate (%) In vivo inactivation ([2]; treatment dose 500 μg/mL): 59.7%
Bactericidal activity (%) Rhizoctonia solani (Rhizoctonia solani): 8.3%
Bactericidal activity (%) Botrytis cinerea (Botrytis cinerea): 41.7%
Relative inhibition rate (%) In vitro activity ([3]; treatment dose 100 μg/mL): 25.6%
Relative inhibition rate (%) In vitro activity ([3]; treatment dose 500 μg/mL): 58.1%
Bactericidal activity (%) Cucumber fusarium wilt (cucumber fusarium wilt): 4.5%
Mosquito larvae Mortality (%) (mosquito larvae; concentration 5 mg/kg): 20%
Mosquito larvae Mortality (%) (mosquito larvae; concentration 10 mg/kg): 100%
Armyworm Mortality (%) (armyworms): 45%
Bactericidal activity (%) Cercospora arachidicola (Cercospora arachidicola): 36.4%
anti-TMV activity compared with ningnanmycin [7]: equivalent to the activity of commercial variety ningnanmycin
Bactericidal activity (%) Sclerotinia scleotiorum (Sclerotinia scleotiorum): 3.8%
Corn borer Mortality (%) (corn borers [8]): 40%
Relative inhibition rate (%) In vivo protection ([5]; treatment dose 100 μg/mL): 18.9%
Relative inhibition rate (%) In vivo protection ([5]; treatment dose 500 μg/mL): 56.8%
Relative inhibition rate (%) In vivo therapy ([6]; treatment dose 100 μg/mL): 16.7%
Relative inhibition rate (%) In vivo therapy ([6]; treatment dose 500 μg/mL): 55.4%
Bactericidal activity (%) Alternaria solani (Alternaria solani): 14.3%
Bactericidal activity (%) Fusarium graminearumt (Fusarium graminearumt): 53.8%
Bactericidal activity (%) Macrophoma kawatsukai (Macrophoma kawatsukai): 36.4%
Bactericidal activity (%) Fusarium fujikuroi (Fusarium fujikuroi): 23.5%
Bactericidal activity (%) Rhizoctonia cereali (Rhizoctonia cereali): 48.6%
